Laboratory results taken from patent US20250009901A1, “COMPOSITION COMPRISING A COMBINATION OF IMMUNE CHECKPOINT INHIBITOR AND ANTIBODY-AMATOXIN CONJUGATE FOR USE IN CANCER THERAPY” (Heidelberg Pharma Research GmbH, priority 2020, published 2025).
pKd: −log10 of the molar value.

Legend:
[1] = target: RNA-polymerase II (Homo sapiens, UniProt P24928); conditions: read-out: KD of the complex between amanitin and RNA-polymerase II; cited from earlier work
[2] = tested on: Her2-positive cell line BT474; assay: Calreticulin measurement (ICD marker), flow cytometry; format: cell-based, human; conditions: Amanitin 100 nM, conjugates 50 nM antibody, 24, 48, 72 h post-treatment, vs media only
Description: (§1) The Her2-positive cell line BT474 is a human breast cancer cell line. The CD79b-positive cell line BJAB is a human Burkitt lymphoma-derived B cell line.
(§2) Cells of the Her2-positive cell line BT474 and of the CD79b-positive cell line BJAB, respectively, were plated at 8×10^4 cells per well in 100 μL of media. Flat bottom or U-bottom plates were used for BT474 or BJAB cells, respectively. The following day, media was changed. […] Then, cells were treated with media alone, Maytansine (100 nM), Amanitin (100 nM), Anti-HER2-Amanitin conjugate (50 nM antibody), or Anti-CD79b-Amanitin conjugate (50 nM antibody) for 16-72 h.
(§3) Cells were assayed at 24, 48, and 72 h post-treatment. The adherent BT474 cells were lifted with a solution of highly purified, recombinant cell-dissociation enzymes (TrypLE, Thermo-Fisher) for 2 min. at 37° C. Both BT474 and BJAB cells were washed with PBS/2% FBS and then fixed in 0.5% paraformaldehyde for 5 min. After washing twice with cold PBS/2% FBS, cells were incubated for 5 min. with an Fc receptor binding inhibitor (FC block, eBioscience), blocking Fc receptor-mediated non-specific binding, followed by 30-min. incubation with Anti-Calreticulin-FITC (Abcam) or isotype control-FITC (Abcam). […] Propidium iodide (PI) was added, and samples were analyzed by flow cytometry on a FACSCanto instrument (Becton-Dickinson) using FACS Diva software.

[3] = tested on: CD79b-positive cell line BJAB; assay: as above; format: cell-based, human; conditions: Amanitin 100 nM, conjugates 50 nM antibody, 24, 48, 72 h post-treatment, vs media only
Description: as §1, §2, §3

[4] = tested on: Her2-positive cell line BT474; assay: Extracellular HMGB1 measurement (ICD marker), ELISA; format: cell-based, human; conditions: Amanitin 100 nM, conjugates 50 nM antibody, 24, 48, 72 h post-treatment, vs media only
Description: as §1, §2
(§4) Culture media was collected at 24, 48, and 72 h post-treatment. Analytes were captured on a Nunc Maxisorp 96-well plate coated at pH 9 with 1 μg/mL Anti-HMGB1 antibody (clone 1D5, Sigma), and plates were blocked with casein buffer (ThermoFisher). A standard curve was generated using recombinant human HMGB1 protein (R&D Systems) added to culture media that had been incubated at 37° C./5% CO2 for the same number of days as the experimental samples. This step had the effect of normalizing background signals observed in fresh culture media. […] After 30 min, the plate was washed with PBS/0.1% Tween-20, and bound secondary antibody was detected using Ultra TMB (Thermo Fisher); signals were read on a Molecular Devices Spectra Max M5 plate reader. […]

[5] = tested on: CD79b-positive cell line BJAB; assay: as above; format: cell-based, human; conditions: Amanitin 100 nM, conjugates 50 nM antibody, 24, 48, 72 h post-treatment, vs media only
Description: as §1, §2, §4

[6] = tested on: Her2-positive cell line BT474; assay: Extracellular ATP measurement (ICD marker); format: cell-based, human; conditions: Amanitin 100 nM, conjugates 50 nM antibody, 16, 40, 64 h post-treatment, vs media only
Description: as §1, §2
(§5) At 16, 40, and 64 h post-treatment, culture media was transferred to reaction tubes (Eppendorf) and centrifuged gently. Extracellular ATP concentrations were determined by use of the ENLITEN ATP Assay (Promega). Chemiluminescence was measured on a SpectraMax ME chemiluminescence reader (Molecular Devices).

[7] = tested on: CD79b-positive cell line BJAB; assay: Extracellular ATP measurement (ICD marker); format: cell-based, human; conditions: Amanitin 100 nM, conjugates 50 nM antibody, 16, 40, 64 h post-treatment, vs media only
Description: as §1, §2, §5

[8] = tested on: CD19-positive Raji cells (human Burkitt lymphoma); assay: Raji xenograft mouse model with human PBMCs, ATAC and Avelumab (first Example 4, FIG. 5); format: in vivo, mice
Description: FIG. 5. Synergistic action of Avelumab and Anti-CD19-Amatoxin conjugate in the presence of peripheral blood mononuclear cells (PBMCs). Results of anti-tumoral studies using anti-PD-L1 antibody Avelumab (20 mg/kg, i.v., days 0, 3, 6, 8, 10, 13), or anti-CD19-amatoxin conjugate (ATAC, 0.1 and 0.3 mg/kg, respectively; single dose i.v. day 0), or a combination of Avelumab (20 mg/kg) and ATAC (0.1 and 0.3 mg/kg, respectively), in vivo in a Raji xenograft mice model system. Tumor volume was assessed at various time points after tumor cell inoculation.
The cytotoxic activity of the combination comprising an ICI and an ATAC has been assessed by use of a tumor mouse model in vivo. The study consisted of 6 experimental groups with 12 animals each. CD19-positive Raji cells (human Burkitt lymphoma, DSMZ) were premixed with human peripheral blood mononuclear cells (PBMCs, German Red Cross) and inoculated subcutaneously on study day 0. […] Tumor volumes were measured twice per week by calliper measurements and body weights were determined in parallel. […]

| Substance | pKd [1] | cell surface exposure of calreticulin (CRT) [2] | cell surface exposure of calreticulin (CRT) [3] | HMGB1 release [4] | HMGB1 release [5] | ATP secretion [6] | ATP secretion [7] | Reduction of the tumor volumes as compared to the control group (PBS), single agents compared with each other ([8]; Avelumab 20 mg/kg alone, ATAC 0.1 mg/kg alone) | Mean TV (tumor volume) ([8]; day 31 post tumor cell inoculation, Avelumab 20 mg/kg i.v. days 0, 3, 6, 8, 10, 13) [mm^3] |
| --- | --- | --- | --- | --- | --- | --- | --- | --- | --- |
| Amanitin | 8.52 | did not induce | did not induce | did not induce | did not induce | did not induce | did not induce |  |  |
| Avelumab: PD-L1-specific antibody |  |  |  |  |  |  |  | comparable | 353.1 |
